{"source": "patent US6783775B2", "about": "“Serum-derived factor inducing cell differentiation and medical uses thereof” (Hadasit Medical Research Services and Development Ltd., priority 1996, dated 2004)", "key": {"HL-60 cells [1]": {"tested_on": "HL-60 cells", "experiment": "Cell proliferation assay (3H-thymidine incorporation) on HL-60 cells", "type": "cell-based, human", "description": "(§1) Cell lines included the human myelomonocytic cells HL-60, GM-CSF-dependent human myelomonocytic cells LK (established in the inventors' laboratory) and the murine monocytic cell line WEHI. Cell lines were maintained by sub-culturing every 3-4 days at 2.5×10^5 cell/ml in either alpha minimal essential or RPMI-1640 media (GIBCO, Grand Island, N.Y.) supplemented with 10-20% fetal calf serum (FCS) (Bio Labs Jerusalem, Israel). The cultures were incubated at 37° C., in a humidified atmosphere of 5% CO2 in air. The concentration of viable cells was determined by the trypan blue exclusion technique. Total cell count was performed using a Coulter counter.\nHL-60 or other cells were cultured at 1.3×10^5/ml in 24-well dish and medium containing 0.5% heat-inactivated FCS and various dilutions of the tested fractions. DNA synthesis was determined on day 4 by incorporation of ^3[H]-thymidine ([…]/150 μl) (5 mCi/mmol, ICN Radiochemicals, Irvine, Calif.) added 12 hrs before harvesting. One unit of SDF was defined as the amount per milliliter required for 50% decrease in ^3H-thymidine incorporation."}, "[2]": {"tested_on": "normal hemopoietic progenitor cells", "experiment": "Indirect cloning (two-phase culture) of normal hemopoietic progenitors", "type": "cell-based, human", "settings": "indirect cloning system, control (0) 70", "description": "Indirect cloning: Cells were prepared as described for direct cloning, were first incubated for several days in liquid culture supplemented with or without the indicated growth factors or tested fraction, then washed. and cloned in semi-solid medium as described above.\nExpansion of normal hemopoietic progenitors—In order to test the effect of SDF on early and late normal hemopoietic progenitors a two-phase culture procedure was employed:\nPhase 1 (Expansion phase)—Light density BM or PB cells were incubated for several days in liquid medium supplemented with SDF.\nPhase 2 (Clonal phase)—At the end of phase 1, cells were harvested, washed and recultured in either semi solid medium or in liquid medium supplemented with either recombinant human late growth/differentiation factors like GM-CSF, Epo, or 5637-CM, which contains GM, G-CSF. IL-6, IL-1 and other cytokines, but not Epo. […] The lineage specific differentiation of the colonies in Phase 2 depended on the late factor present, e.g., Epo for CFU-E and GM-CSF for CFU-GM."}, "HL-60 cells [3]": {"tested_on": "HL-60 cells", "experiment": "Leukemic cell cloning (colony formation) of HL-60 cells in semi-solid medium", "type": "cell-based, human", "settings": "HL-60 600 cells/ml; 8 days; mean of two experiments; G-CSF 1000 U/ml, IL-1 100 U/ml", "description": "as §1\n(§2) 300-1000 cells/ml were seeded in semi-solid medium composed of 0.83% methyl-cellulose (Fisher Scientific company, Fair Lawn, N.J.) or 0.3% Bacto agar (Difco laboratories, Detroit, Mich.) in alpha medium supplemented with 10% FCS. Colony number was scored with an inverted microscope on day 8. In order to determine cellular maturation, single colonies were picked up with a fine capillary tube, smeared on a glass slide and stained."}, "WEHI cells": {"tested_on": "WEHI cells", "experiment": "Leukemic cell cloning (colony formation) of WEHI cells in semi-solid medium", "type": "cell-based, murine", "settings": "WEHI 300 cells/ml; 8 days; mean of two experiments; G-CSF 100 U/ml, IL-1 100 U/ml", "description": "as §1, §2"}}, "data": [{"molecule": "O=C(O)c1cc(C(=O)O)c2c(n1)C(=O)C(=O)c1cc(C(=O)O)[nH]c1-2", "note": "[PQQ, pyrroloquinoline quinone]", "values": [{"measurement": "inhibition at 0.01 µg/mL", "setting": "HL-60 cells [1]; Homo sapiens, HL-60, PQQ concentration 0.01 μg/ml, HL60 cells, read-out: Growth inhibition (%)", "result": 0, "unit": "%"}, {"measurement": "inhibition at 0.05 µg/mL", "setting": "HL-60 cells [1]; Homo sapiens, HL-60, PQQ concentration 0.05 μg/ml, HL60 cells, read-out: Growth inhibition (%)", "result": 30, "unit": "%"}, {"measurement": "inhibition at 0.1 µg/mL", "setting": "HL-60 cells [1]; Homo sapiens, HL-60, PQQ concentration 0.1 μg/ml, HL60 cells, read-out: Growth inhibition (%)", "result": 30, "unit": "%"}, {"measurement": "inhibition at 0.5 µg/mL", "setting": "HL-60 cells [1]; Homo sapiens, HL-60, PQQ concentration 0.5 μg/ml, HL60 cells, read-out: Growth inhibition (%)", "result": 40, "unit": "%"}, {"measurement": "inhibition at 1 µg/mL", "setting": "HL-60 cells [1]; Homo sapiens, HL-60, PQQ concentration 1 μg/ml, HL60 cells, read-out: Growth inhibition (%)", "result": 40, "unit": "%"}, {"measurement": "inhibition at 5 µg/mL", "setting": "HL-60 cells [1]; Homo sapiens, HL-60, PQQ concentration 5 μg/ml, HL60 cells, read-out: Growth inhibition (%)", "result": 60, "unit": "%"}, {"measurement": "Colony No.", "setting": "[2]; PQQ concentration 0.01 μg/ml", "result": 89}, {"measurement": "Colony No.", "setting": "[2]; PQQ concentration 0.1 μg/ml", "result": 109}, {"measurement": "Colony No.", "setting": "[2]; PQQ concentration 1 μg/ml", "result": 130}, {"measurement": "Colony No.", "setting": "[2]; PQQ concentration 5 μg/ml", "result": 148}]}, {"molecule": "CC1=C(/C=C/C(C)=C/C=C/C(C)=C/C(=O)O)C(C)(C)CCC1", "note": "[Retinoic acid]", "values": [{"measurement": "Colonies: Diffused (fully differentiated)", "setting": "HL-60 cells [3]", "result": 114}, {"measurement": "Colonies: Partially diffused (partially differentiated)", "setting": "HL-60 cells [3]", "result": 49}, {"measurement": "Colonies: Tight (undifferentiated)", "setting": "HL-60 cells [3]", "result": 0}, {"measurement": "Colonies: Total", "setting": "HL-60 cells [3]", "result": 163}]}, {"molecule": "G-CSF: growth factor (colony stimulating factor) used for comparison (protein, UniProt P09919 31-207, looked up) Granulocyte …: TPLGPASSLPQSFLLKCLEQVRKIQGDGAALQEKLVSECATYKLCHPEELVLLGHSLGIPWAPLSSCPSQALQLAGCLSQLHSGLFLYQGLLQALEGISPELGPTLDTLQLDVADFATTIWQQMEELGMAPALQPTQGAMPAFASAFQRRAGGVLVASHLQSFLEVSYRVLRHLAQP", "values": [{"measurement": "Colonies: Diffused (fully differentiated)", "setting": "HL-60 cells [3]", "result": 0}, {"measurement": "Colonies: Partially diffused (partially differentiated)", "setting": "HL-60 cells [3]", "result": 12}, {"measurement": "Colonies: Tight (undifferentiated)", "setting": "HL-60 cells [3]", "result": 325}, {"measurement": "Colonies: Total", "setting": "HL-60 cells [3]", "result": 337}, {"measurement": "Colonies: Diffused (fully differentiated)", "setting": "WEHI cells", "result": 51}, {"measurement": "Colonies: Partially diffused (partially differentiated)", "setting": "WEHI cells", "result": 55}, {"measurement": "Colonies: Tight (undifferentiated)", "setting": "WEHI cells", "result": 25}, {"measurement": "Colonies: Total", "setting": "WEHI cells", "result": 132}]}, {"molecule": "ceruloplasmin (protein, UniProt P00450 20-1065, looked up) Ceruloplasmin: KEKHYYIGIIETTWDYASDHGEKKLISVDTEHSNIYLQNGPDRIGRLYKKALYLQYTDETFRTTIEKPVWLGFLGPIIKAETGDKVYVHLKNLASRPYTFHSHGITYYKEHEGAIYPDNTTDFQRADDKVYPGEQYTYMLLATEEQSPGEGDGNCVTRIYHSHIDAPKDIASGLIGPLIICKKDSLDKEKEKHIDREFVVMFSVVDENFSWYLEDNIKTYCSEPEKVDKDNEDFQESNRMYSVNGYTFGSLPGLSMCAEDRVKWYLFGMGNEVDVHAAFFHGQALTNKNYRIDTINLFPATLFDAYMVAQNPGEWMLSCQNLNHLKAGLQAFFQVQECNKSSSKDNIRGKHVRHYYIAAEEIIWNYAPSGIDIFTKENLTAPGSDSAVFFEQGTTRIGGSYKKLVYREYTDASFTNRKERGPEEEHLGILGPVIWAEVGDTIRVTFHNKGAYPLSIEPIGVRFNKNNEGTYYSPNYNPQSRSVPPSASHVAPTETFTYEWTVPKEVGPTNADPVCLAKMYYSAVEPTKDIFTGLIGPMKICKKGSLHANGRQKDVDKEFYLFPTVFDENESLLLEDNIRMFTTAPDQVDKEDEDFQESNKMHSMNGFMYGNQPGLTMCKGDSVVWYLFSAGNEADVHGIYFSGNTYLWRGERRDTANLFPQTSLTLHMWPDTEGTFNVECLTTDHYTGGMKQKYTVNQCRRQSEDSTFYLGERTYYIAAVEVEWDYSPQREWEKELHHLQEQNVSNAFLDKGEFYIGSKYKKVVYRQYTDSTFRVPVERKAEEEHLGILGPQLHADVGDKVKIIFKNMATRPYSIHAHGVQTESSTVTPTLPGETLTYVWKIPERSGAGTEDSACIPWAYYSTVDQVKDLYSGLIGPLIVCRRPYLKVFNPRRKLEFALLFLVFDENESWYLDDNIKTYSDHPEKVNKDDEEFIESNKMHAINGRMFGNLQGLTMHVGDEVNWYLMGMGNEIDLHTVHFHGHSFQYKHRGVYSSDVFDIFPGTYQTLEMFPRTPGIWLLHCHVTDHIHAGMETTYTVLQNEDTKSG", "values": [{"measurement": "activity of the CP fraction separated from SDF", "setting": "HL-60 cells [1]; CP fraction eluted at about 40% acetonitrile from RP-HPLC Resource column", "result": "devoid of activity"}]}]}
